# According to patent publication US20100120700A1, “METHODS AND COMPOSITIONS FOR TREATING CERVICAL CANCER” (priority 2000, published 2010):
# Where “and” joins values, the source holds several entries; their conditions need not be identical. Equal values may be shown once.
# Key:
# Assay in all cases: G assay PDZ-PL binding
# [1] = biological target: T1, EBP50 #287.1 domain 2 (Homo sapiens, UniProt O14745); settings: peptide 10 uM, protein 5
# T1 construct: made in house; host or cells: E. coli (DH5alpha, BL21 or JM109)
# Procedure: (§1) (1) A PDZ-domain polypeptide is bound to a surface, e.g. a protein binding surface. In a preferred embodiment, a GST/PDZ fusion protein containing one or more PDZ domains is bound to a polystyrene 96-well plate. […] In one embodiment, the GST/PDZ fusion protein is bound via an anti-GST antibody that is coated onto the 96-well plate. Adequate binding to the plate can be achieved when: • a. 100 uL per well of 5 ug/mL goat anti-GST polyclonal antibody (Pierce) in PBS is added to a polystyrene 96-well plate (e.g., Num Polysorb) at 4° C. for 12 hours. • b. The plate is blocked by addition of 200 uL per well of PBS/BSA for 2 hours at 4° C. • c. The plate is washed 3 times with PBS. • d. 50 uL per well of 5 ug/mL GST/PDZ fusion protein) or, as a negative control, GST polypeptide alone (i.e. not a fusion protein) in PBS/BSA is added to the plate for 2 hours at 4° C. • e. The plate is again washed 3 times with PBS. […]
# (§2) (3) The binding of the biotinylated peptide to the GST/PDZ fusion protein surface can be detected using a variety of methods and detectors known to one of skill in the art. In one embodiment, 100 uL per well of 0.5 ug/mL streptavidin-horse radish peroxidase (HRP) conjugate dissolved in BSA/PBS is added and allowed to react for 20 minutes at 4° C. The plate is then washed 5 times with 50 mM Tris pH 8.0 containing 0.2% Tween 20, and developed by addition of 100 uL per well of HRP-substrate solution (TMB, Dako) for 20 minutes at room temperature (RT). The reaction of the HRP and its substrate is terminated by addition of 100 uL per well of 1M sulfuric acid, and the absorbance of each well of the plate is read at 450 nm.
# (§3) (4) Specific binding of a PL peptide and a PDZ domain polypeptide is determined by comparing the signal from the well(s) in which the PL peptide and PDZ domain polypeptide are combined, with the background signal(s). The background signal is the signal found in the negative control(s). Typically a specific or selective reaction will be at least twice background signal, more typically more than 5 times background, and most typically 10 or more times the background signal. In addition, a statistically significant reaction will involve multiple measurements of the reaction with the signal and the background differing by at least two standard errors, more typically four standard errors, and most typically six or more standard errors. Correspondingly, a statistical test (e.g. a T-test) comparing repeated measurements of the signal with-repeated measurements of the background will result in a p-value<0.05, more typically a p-value<0.01, and most typically a p-value<0.001 or less. As noted, in an embodiment of the “G” assay, the signal from binding of a given PL peptide to immobilized (surface bound) GST polypeptide alone is one suitable negative control (sometimes referred to as “B 1”). Because all measurement are done in multiples (i.e. at least duplicate) the arithmetic mean (or, equivalently, average.) of several measurements is used in determining the binding, and the standard error of the mean is used in determining the probable error in the measurement of the binding. The standard error of the mean of N measurements equals the square root of the following: the sum of the squares of the difference between each measurement and the mean, divided by the product of (N) and (N−1). Thus, in one embodiment, specific binding of the PDZ protein to the platebound peptide is determined by comparing the mean signal (“mean S”) and standard error of the signal (“SE”) for a particular PL-PDZ combination with the mean B1.
# (§4) For convenience, the assay conditions described in this section are referred to as the “G’ assay” and the “G” assay,” with the specific conditions described in the preceding section on G assays being referred to as the “G° assay.” The “G′ assay” is identical to the “G° assay” except at step (2) the peptide concentration is 10 uM instead of 20 uM. […]
# [2] = biological target: T2, EBP50 #341.1 domain 1 (Homo sapiens, UniProt O14745); settings: peptide 10 uM, protein 5
# T2 construct: made in house; host or cells: E. coli (DH5alpha or BL-21)
# Procedure: as §1, §2, §3, §4
# [3] = biological target: T3, ERBIN domain 1 (Homo sapiens, UniProt Q96RT1); settings: peptide 10 uM, protein 5
# T3 construct: made in house; host or cells: E. coli (DH5alpha, BL21 or JM109)
# Procedure: as §1, §2, §3, §4
# [4] = biological target: T4, KIAA0147 domain 3 (Homo sapiens, UniProt Q14160); settings: A450 nm, peptide 10 uM, protein 5
# T4 construct: made in house; host or cells: E. coli (DH5alpha, BL21 or JM109)
# Procedure: as §1, §2, §3, §4
# [5] = biological target: T5, MINT1 domain 1, 2 (Homo sapiens, UniProt Q02410); settings: peptide 10 uM, protein 5
# T5 construct: When more than one PDZ domain was cloned, the DNA portion cloned represents the PDZ domains and the cDNA portion located between individual domains; made in house; host or cells: E. coli (DH5alpha, BL21 or JM109), vector pGEX-3X
# Procedure: as §1, §2, §3, §4
# [6] = biological target: T6, MUPP1 domain 13 (Homo sapiens, UniProt O75970); settings: peptide 10 uM, protein 5
# T6 construct: made in house; host or cells: E. coli (DH5alpha or BL-21)
# Procedure: as §1, §2, §3, §4
# [7] = biological target: T7, NeDLG domain 2 (Homo sapiens, UniProt Q92796); settings: vs GST only well, peptide 10 uM, protein 5
# T7 construct: made in house; host or cells: E. coli (DH5alpha, BL21 or JM109)
# Procedure: as §1, §2, §3, §4
# [8] = biological target: T8, Numb BP domain 1 (Homo sapiens, UniProt Q8TBB1); settings: peptide 10 uM, protein 5
# T8 construct: made in house; host or cells: E. coli (DH5alpha, BL21 or JM109)
# Procedure: as §1, §2, §3, §4
# [9] = biological target: T9, PDZK1 domain 2, 3, 4 (Homo sapiens, UniProt Q5T2W1); settings: peptide 10 uM, protein 5
# T9 construct: When more than one PDZ domain was cloned, the DNA portion cloned represents the PDZ domains and the cDNA portion located between individual domains; made in house; host or cells: E. coli (DH5alpha, BL21 or JM109)
# Procedure: as §1, §2, §3, §4
# [10] = biological target: T10, PTPL1 domain 2 (Homo sapiens, UniProt Q12923); settings: peptide 10 uM, protein 5
# T10 construct: made in house; host or cells: E. coli (DH5alpha, BL21 or JM109)
# Procedure: as §1, §2, §3, §4
# [11] = biological target: T11, SITAC-18 domain 1 (Homo sapiens, UniProt Q9H190); settings: peptide 10 uM, protein 5
# T11 construct: made in house; host or cells: E. coli (DH5alpha or BL-21)
# Procedure: as §1, §2, §3, §4
# [12] = biological target: T12, Syntrophin gamma 2 domain 1 (Homo sapiens, UniProt Q9NY99); settings: peptide 10 uM, protein 5
# T12 construct: made in house; host or cells: E. coli (DH5alpha, BL21 or JM109), vector pGEX-3X
# Procedure: as §1, §2, §3, §4
# T3 sequence (Q96RT1 1313-1412): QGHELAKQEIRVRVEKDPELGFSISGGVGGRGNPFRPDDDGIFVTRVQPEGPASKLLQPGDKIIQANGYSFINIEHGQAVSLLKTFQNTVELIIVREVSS
# T12 sequence (Q9NY99 65-163): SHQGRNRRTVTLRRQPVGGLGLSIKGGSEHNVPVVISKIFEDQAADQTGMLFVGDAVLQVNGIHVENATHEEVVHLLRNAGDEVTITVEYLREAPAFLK
# T5 sequence (Q02410 651-828 limits assumed): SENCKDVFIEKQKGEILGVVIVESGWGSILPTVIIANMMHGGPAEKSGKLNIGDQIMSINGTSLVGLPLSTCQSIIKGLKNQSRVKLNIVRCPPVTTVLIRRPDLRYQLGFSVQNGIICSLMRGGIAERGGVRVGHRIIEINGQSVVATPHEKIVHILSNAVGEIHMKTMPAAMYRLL
# T6 sequence (O75970 1980-2070): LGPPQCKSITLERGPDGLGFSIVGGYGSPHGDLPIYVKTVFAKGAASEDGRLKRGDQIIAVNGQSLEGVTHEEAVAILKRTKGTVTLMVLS
# T8 sequence (Q8TBB1 with tags, fused parts or gaps): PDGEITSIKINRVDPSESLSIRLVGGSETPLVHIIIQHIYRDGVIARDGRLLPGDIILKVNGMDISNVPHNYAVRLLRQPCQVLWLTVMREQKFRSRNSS
# T1 sequence (O14745 with tags, fused parts or gaps): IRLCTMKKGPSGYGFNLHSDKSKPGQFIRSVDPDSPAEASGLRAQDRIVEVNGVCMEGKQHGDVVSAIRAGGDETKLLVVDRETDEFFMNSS
# T4 sequence (Q14160 with tags, fused parts or gaps): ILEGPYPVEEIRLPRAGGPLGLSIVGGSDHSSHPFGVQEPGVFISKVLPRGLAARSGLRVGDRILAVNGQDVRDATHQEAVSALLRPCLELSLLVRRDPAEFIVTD
# T7 sequence (Q92796 with tags, fused parts or gaps): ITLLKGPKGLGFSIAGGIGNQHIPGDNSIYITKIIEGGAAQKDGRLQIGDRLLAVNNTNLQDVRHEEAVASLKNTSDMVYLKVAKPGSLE
# T11 sequence (Q9H190 104-195): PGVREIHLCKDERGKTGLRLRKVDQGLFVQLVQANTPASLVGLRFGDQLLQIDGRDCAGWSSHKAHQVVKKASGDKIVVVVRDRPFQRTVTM
# T2 sequence (O14745 with tags, fused parts or gaps): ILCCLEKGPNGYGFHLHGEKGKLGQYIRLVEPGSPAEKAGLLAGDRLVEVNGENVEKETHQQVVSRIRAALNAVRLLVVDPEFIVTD
# T10 sequence (Q12923 1364-1458): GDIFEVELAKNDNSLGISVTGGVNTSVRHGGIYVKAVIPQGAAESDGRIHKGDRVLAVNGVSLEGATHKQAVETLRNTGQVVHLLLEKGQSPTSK
substance,measurement,setting,value
"20 mer peptide corresponding to the C-terminus of HPV16 E6 (PDZ ligand), biotinylated in binding assays; ends SSRTRRETQL (SEQ ID NO: 13) [HPV E6 #16]",Ave OD,[1]; A450 nm,0.499
same,OD S/N,[1]; vs GST only well,2.57
same,Ave OD,[2]; A450 nm,0.43
same,OD S/N,[2]; vs GST only well,1.65
same,Ave OD,[3]; A450 nm,0.36 and 0.342
same,OD S/N,[3]; vs GST only well,1.82 and 1.30
same,Ave OD,[4],2.0785 and 1.072
same,Ave OD,[5]; A450 nm,0.3655 and 0.6075
same,OD S/N,[5]; vs GST only well,1.42 and 2.11
same,Ave OD,[6]; A450 nm,0.4355 and 0.4115
same,OD S/N,[6]; vs GST only well,1.56 and 1.75
same,OD S/N,[7],2.20 and 3.99
same,Ave OD,[8]; A450 nm,0.352
same,OD S/N,[8]; vs GST only well,3.17
same,Ave OD,[9]; A450 nm,0.518
same,OD S/N,[9]; vs GST only well,2.64
same,Ave OD,[10]; A450 nm,0.348
same,OD S/N,[10]; vs GST only well,1.80
same,Ave OD,[11]; A450 nm,0.3975
same,OD S/N,[11]; vs GST only well,1.63
same,Ave OD,[12]; A450 nm,0.469 and 0.7725
same,OD S/N,[12]; vs GST only well,2.76 and 3.13
